Reference: patent publication US20140128349A1 (Indiana University School of Medicine, priority 2012, published 2014)
“Also recorded” adds a separate entry of the source.

Key:
1205Lu melanoma cells = assay: 1205Lu melanoma metastasis in nude mice; type: in vivo
Text: (§1) TGFbeta derived from bone fuels melanoma bone metastasis by inducing tumor secretion of pro-metastatic factors that act on bone cells to change the skeletal microenvironment. […] Hfg is active orally and by intraperitoneal injection, and it has completed Phase I clinical trials in cancer patients. It suppresses the phosphorylation and activation of Smad2 and Smad3 by inducting of Smad7. Overexpression of inhibitory Smad7 has been associated with a reduction on invasive capacity in vitro and anchorage-independent growth, and delays subcutaneous tumor growth in nude mice. The present inventors have shown that Smad7 overexpression decreased melanoma bone metastasis, thus is useful for treating and/or preventing muscle weakness and atrophy as well as other muscle related side effects in cancer patients.

human melanoma cells = assay: Hfg treatment of human melanoma cells; type: cell-based
Text: as §1

RyR [1] = assay: S107 blood brain barrier crossing and calstabin binding to RyR in brain in vivo
Text: Data from heart and soleus muscle are also illustrated.
Cardiac muscle RyR2 is PKA hyperphosphorylated, oxidized, nitrosylated and depleted of calstabin2 in animal models of heart failure (HF) and in the hearts of patients with HF. […] Compounds of formula I-o, which share a common structure with S107, are also expected to have similar activities. This advantage is expected to enhance the ability of the TGFbeta inhibitor to be available to act upon most body tissues for improved effectiveness.

RyR [2] = conditions: cited from earlier work
RyR2 = conditions: animals; cited from earlier work
RyR1 [3] = biological target: T1, RyR1 (Mus musculus, UniProt E9PZQ0); set-up: from tissue; host or cells: skeletal muscle of mdx mice; conditions: mdx model of DMD; cited from earlier work
RyR1 [4] = biological target: T1, RyR1; set-up: in a mouse model of aging, oxidation of skeletal muscle RyR1 causes depletion of the stabilizing subunit calstabin1 (FKBP12); from tissue; host or cells: skeletal muscle of aged (2 yr old) mice; conditions: mouse model of aging; cited from earlier work
RyR1 [5] = assay: RyR1 oxidation/nitrosylation/calstabin1 immunoblot of EDL from PC-3 tumor bearing mice; type: in vivo; conditions: mice with prostate cancer metastatic to bone
Method: (§2) In embodiments B and C are shown decreased skeletal muscle cross-sectional area in tumor-bearing mice determined by Micro-CT as described herein. In embodiments D and E are shown decreased body weight (D) and decreased Grip strength (E) in PC-3 tumor bearing mice. […] In embodiment J is shown that RyR1 is oxidized and there is decreased calstabin1 in the RyR1 complex from, skeletal muscle (EDL) from mice with metastatic prostate cancer. RyR1 was immunoprecipitated from 250 μg of EDL homogenate using an anti-RyR antibody (4 μg 5029 Ab), and the immunoprecipitates were separated on SDS-PAGE gels (6% for RyR. 15% for Calstabin). All immunoblots were developed and quantified with the Odyssey system (LI-COR, Inc., Lincoln, Nebr.) using IR labeled anti-mouse and anti-Rabbit IgG (1:10,000 dilution) secondary antibodies. […] Quantification of immunoblots showing the relative nitrotyrosine/SERCA for each group of EDLs tested. *p<0.01 compared to non-cancer controls as analyzed by ANOVA. […]
Quantification of RyR1 skeletal channel nitrosylation, oxidation and phosphorylation by protein kinase A (PKA) are performed as described (Bellinger et al., 2009; Bellinger et al., 2008b).
Quantification of depletion of the channel stabilizing subunit calstabin 1 (FKBP12) from skeletal RyR1 by immunoprecipitation techniques are performed as described (Marx et al., 2000). […]

PC-3 bone metastases = assay: PC-3 prostate cancer bone metastases in mice; type: in vivo; conditions: osteolytic model; X-ray, osteolytic lesion area, survival
Text: For all mouse experiments, N=15 for each group of mice for tumors inoculated in the left cardiac ventricle (PC-3) or intratibially (LuCAP23.1) based on power analysis detailed below. Male nude mice are housed in laminar flow isolated hoods with water supplemented with vitamin K and autoclaved mouse chow provided ad libitum. Cells are introduced into mice at 4 wks of age. Animals are anesthetized with ketamine/xylazine and positioned ventral side up.
Multiple modalities of bone imaging including X-ray and μCT are used to longitudinally monitor the bone lesions and confirmed by histology and quantitative histomorphometry as previously described (Dunn et al., 2009; Guise et al., 1996b; Yin et al., 1999). Muscle mass are followed serially in vivo using the Piximus II system (Wiren et al., 2011) and microCT (Manske et al., 2011).

[6] = co-administration of S107 and SD208 in tumor bearing mice; type: in vivo; conditions: S107 in drinking water about 50 mg/kg/day
Method: For example, administering the TGFbeta kinase inhibitor SD208 prevents oxidation of RyR1 and SERCA in skeletal muscles from tumor bearing mice, thus increasing muscle specific force production and grip strength in these mice. The co-administration of S107 further inhibits SR Ca^2+ leak by reducing the stress-induced depletion of calstabin from the RyR channel complex. […] Thus, when these are co-administered, the benzothiazepine derivative is administered at a dosage of between about 20 mg/kg/day and about 100 mg/kg/day and the inhibitor is administered in an amount of about 10 mg/kg/day and about 50 mg/kg/day. The ratio of the amount of benzothiazepine derivative to inhibitor in the co-administered formulation should be between 1:1 to 5:1 and preferably 1.3:1 to 2.5:1. Also, the benzothiazepine and inhibitor can be administered at the same time in a single formulation or sequentially if each is present in a separate formulation.

[7] = EDL muscle specific force in mice with PC-3 prostate cancer bone metastases; type: in vivo; conditions: hypogonadal mice with PC-3 prostate cancer metastatic to bone
Method: as §2, with “antibodies. Immunoblots developed using anti-RyR (clone 34C, 1:5,000), anti-Cys-NO (1:1000, Sigma, St. Louis, Mo.), anti-DNP (to determine RyR1 oxidation. 1:250), and anticalstabin (1:2500).” for “antibodies.”
S107 is administered in the drinking water at a dose of 50 mg/kg/d, water consumption is monitored and plasma drug levels determined. […]

[8] = tested on: LuCaP 23.1 human prostate cancer osteoblastic xenograft; assay: LuCaP 23.1 osteoblastic prostate cancer xenograft in tibia of nude mice; type: in vivo
Text: Four-week old, male nude mice were inoculated into the tibia with LuCaP 23.1 human prostate cancer osteoblastic xenograft (n=14-15/group).

[9] = patients with prostate cancer bone metastases, regardless of radiographic phenotype; cited from earlier work

T1 sequence (E9PZQ0 whole entry): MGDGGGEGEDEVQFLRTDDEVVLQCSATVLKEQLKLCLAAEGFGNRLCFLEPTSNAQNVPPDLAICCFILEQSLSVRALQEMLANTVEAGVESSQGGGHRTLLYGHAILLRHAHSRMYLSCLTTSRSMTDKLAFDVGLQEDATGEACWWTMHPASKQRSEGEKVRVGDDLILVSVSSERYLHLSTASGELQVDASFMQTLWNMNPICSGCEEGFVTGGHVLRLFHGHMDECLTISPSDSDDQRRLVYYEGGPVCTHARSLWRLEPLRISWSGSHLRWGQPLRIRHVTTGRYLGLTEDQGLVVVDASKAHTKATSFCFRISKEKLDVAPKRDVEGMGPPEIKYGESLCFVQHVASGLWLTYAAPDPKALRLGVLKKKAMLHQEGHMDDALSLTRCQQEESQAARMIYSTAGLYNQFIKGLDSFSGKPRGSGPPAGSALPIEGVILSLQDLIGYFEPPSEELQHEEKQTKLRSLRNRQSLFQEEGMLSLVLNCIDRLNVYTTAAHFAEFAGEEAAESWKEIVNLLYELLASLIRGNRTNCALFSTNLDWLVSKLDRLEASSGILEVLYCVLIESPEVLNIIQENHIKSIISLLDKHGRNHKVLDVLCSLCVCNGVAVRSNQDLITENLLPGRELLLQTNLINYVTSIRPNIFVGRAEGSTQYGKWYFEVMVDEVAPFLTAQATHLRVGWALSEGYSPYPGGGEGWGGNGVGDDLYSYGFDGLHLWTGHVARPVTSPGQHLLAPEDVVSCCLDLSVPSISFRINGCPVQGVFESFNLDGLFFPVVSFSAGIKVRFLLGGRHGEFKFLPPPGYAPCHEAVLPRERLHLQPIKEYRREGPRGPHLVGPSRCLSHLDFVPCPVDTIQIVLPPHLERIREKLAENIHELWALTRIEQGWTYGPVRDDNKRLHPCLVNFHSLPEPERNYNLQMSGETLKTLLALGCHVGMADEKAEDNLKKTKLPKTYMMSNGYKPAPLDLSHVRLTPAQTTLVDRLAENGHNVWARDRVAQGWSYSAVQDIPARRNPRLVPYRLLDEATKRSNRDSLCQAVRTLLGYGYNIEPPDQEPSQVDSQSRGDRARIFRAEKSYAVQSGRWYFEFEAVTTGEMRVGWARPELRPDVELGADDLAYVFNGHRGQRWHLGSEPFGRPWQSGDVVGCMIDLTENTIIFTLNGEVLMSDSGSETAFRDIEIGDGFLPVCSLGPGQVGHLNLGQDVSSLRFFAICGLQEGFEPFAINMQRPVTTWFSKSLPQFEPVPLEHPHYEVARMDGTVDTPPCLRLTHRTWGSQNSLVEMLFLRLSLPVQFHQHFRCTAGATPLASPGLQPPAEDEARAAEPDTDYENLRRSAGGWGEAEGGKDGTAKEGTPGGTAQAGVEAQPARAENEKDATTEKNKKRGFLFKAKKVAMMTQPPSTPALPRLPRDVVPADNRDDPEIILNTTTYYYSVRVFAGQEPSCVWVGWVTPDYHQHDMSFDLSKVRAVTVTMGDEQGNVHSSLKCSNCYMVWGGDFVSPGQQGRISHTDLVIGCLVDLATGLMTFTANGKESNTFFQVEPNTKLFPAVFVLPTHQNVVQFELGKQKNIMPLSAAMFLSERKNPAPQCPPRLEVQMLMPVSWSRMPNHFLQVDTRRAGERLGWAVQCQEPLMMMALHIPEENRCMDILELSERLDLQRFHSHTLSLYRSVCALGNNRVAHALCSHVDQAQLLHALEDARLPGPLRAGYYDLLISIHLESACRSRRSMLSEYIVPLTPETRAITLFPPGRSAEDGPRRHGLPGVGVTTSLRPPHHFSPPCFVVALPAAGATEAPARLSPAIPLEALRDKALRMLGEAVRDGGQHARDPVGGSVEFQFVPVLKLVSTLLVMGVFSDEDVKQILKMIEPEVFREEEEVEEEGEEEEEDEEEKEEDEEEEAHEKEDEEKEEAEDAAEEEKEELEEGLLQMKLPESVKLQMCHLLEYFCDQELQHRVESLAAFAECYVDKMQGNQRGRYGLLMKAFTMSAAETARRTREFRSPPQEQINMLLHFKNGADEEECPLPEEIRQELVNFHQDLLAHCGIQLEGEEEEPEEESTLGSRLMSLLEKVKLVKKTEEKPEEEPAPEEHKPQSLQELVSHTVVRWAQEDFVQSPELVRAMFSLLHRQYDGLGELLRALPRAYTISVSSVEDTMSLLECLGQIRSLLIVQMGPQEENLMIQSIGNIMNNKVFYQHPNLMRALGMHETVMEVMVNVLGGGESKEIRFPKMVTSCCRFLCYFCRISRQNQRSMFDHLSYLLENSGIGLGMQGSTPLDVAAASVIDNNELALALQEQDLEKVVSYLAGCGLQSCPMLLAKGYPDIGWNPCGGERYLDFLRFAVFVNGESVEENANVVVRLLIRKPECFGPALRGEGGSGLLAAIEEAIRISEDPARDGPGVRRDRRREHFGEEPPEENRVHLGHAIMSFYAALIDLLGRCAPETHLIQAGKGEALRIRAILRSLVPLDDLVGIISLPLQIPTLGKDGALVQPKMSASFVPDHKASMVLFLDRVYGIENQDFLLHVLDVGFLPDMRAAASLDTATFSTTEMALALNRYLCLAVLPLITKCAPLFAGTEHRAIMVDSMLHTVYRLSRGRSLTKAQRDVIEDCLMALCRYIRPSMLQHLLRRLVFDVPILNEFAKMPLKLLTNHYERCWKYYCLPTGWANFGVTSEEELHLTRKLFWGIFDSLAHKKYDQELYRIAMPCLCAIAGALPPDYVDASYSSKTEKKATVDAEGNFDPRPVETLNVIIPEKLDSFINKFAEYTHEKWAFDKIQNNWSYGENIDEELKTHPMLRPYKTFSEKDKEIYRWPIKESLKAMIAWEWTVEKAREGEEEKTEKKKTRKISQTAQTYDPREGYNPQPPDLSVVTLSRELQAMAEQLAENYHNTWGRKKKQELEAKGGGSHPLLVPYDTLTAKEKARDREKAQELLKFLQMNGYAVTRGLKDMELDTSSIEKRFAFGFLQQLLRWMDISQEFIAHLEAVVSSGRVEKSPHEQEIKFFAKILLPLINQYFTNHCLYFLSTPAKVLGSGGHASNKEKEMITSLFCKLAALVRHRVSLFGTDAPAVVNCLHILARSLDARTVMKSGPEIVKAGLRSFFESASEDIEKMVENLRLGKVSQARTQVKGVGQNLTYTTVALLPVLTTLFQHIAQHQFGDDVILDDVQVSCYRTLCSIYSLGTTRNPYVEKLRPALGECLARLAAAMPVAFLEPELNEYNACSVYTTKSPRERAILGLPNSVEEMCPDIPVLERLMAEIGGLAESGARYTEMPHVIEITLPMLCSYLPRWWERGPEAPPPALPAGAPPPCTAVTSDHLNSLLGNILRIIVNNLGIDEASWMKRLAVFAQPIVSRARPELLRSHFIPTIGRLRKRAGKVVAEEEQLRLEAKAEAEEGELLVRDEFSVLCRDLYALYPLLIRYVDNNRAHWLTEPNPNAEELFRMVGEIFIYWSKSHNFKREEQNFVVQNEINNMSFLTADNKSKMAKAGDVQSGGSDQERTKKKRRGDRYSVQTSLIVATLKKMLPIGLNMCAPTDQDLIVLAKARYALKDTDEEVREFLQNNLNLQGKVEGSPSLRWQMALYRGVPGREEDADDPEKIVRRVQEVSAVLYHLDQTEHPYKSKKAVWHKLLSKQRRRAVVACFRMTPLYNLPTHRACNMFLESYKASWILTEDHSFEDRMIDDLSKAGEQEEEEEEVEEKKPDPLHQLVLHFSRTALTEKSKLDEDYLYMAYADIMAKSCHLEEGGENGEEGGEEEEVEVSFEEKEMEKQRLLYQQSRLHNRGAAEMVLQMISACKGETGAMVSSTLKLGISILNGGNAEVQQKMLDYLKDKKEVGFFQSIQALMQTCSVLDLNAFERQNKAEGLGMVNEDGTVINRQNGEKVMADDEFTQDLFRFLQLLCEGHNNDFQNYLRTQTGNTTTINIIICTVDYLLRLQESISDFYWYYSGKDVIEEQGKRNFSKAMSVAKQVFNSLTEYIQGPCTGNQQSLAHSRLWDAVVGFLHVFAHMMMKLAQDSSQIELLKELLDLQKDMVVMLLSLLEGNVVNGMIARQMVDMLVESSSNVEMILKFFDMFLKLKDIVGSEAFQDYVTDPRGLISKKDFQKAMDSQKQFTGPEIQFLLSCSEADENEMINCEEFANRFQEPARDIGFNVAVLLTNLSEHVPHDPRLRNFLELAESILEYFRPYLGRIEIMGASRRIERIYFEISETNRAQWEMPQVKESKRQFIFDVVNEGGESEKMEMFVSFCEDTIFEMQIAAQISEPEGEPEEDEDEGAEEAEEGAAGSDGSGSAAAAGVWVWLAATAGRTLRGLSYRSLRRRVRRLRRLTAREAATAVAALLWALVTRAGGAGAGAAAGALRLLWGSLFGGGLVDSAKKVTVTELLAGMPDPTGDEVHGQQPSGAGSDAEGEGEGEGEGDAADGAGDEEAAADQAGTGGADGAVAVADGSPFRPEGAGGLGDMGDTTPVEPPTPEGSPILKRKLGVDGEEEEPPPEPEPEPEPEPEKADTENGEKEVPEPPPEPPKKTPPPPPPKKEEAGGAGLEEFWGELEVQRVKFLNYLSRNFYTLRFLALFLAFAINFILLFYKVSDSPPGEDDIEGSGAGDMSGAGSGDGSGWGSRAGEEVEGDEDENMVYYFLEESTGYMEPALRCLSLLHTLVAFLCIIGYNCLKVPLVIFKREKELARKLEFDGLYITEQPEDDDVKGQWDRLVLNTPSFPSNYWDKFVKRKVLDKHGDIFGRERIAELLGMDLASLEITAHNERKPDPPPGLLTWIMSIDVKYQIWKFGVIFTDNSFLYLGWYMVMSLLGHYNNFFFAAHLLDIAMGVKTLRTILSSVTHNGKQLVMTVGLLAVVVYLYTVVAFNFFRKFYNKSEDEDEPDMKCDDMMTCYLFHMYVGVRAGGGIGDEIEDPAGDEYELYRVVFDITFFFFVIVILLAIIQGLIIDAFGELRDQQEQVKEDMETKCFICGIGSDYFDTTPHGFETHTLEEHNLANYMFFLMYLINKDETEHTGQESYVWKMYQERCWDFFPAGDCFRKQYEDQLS
T1 sequence (P26883 2-108 partner limits assumed): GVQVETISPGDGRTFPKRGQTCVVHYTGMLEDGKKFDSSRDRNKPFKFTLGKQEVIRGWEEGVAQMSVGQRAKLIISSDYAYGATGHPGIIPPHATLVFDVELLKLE

Molecule: O=C(CC1NCCCC1O)Cn1cnc2cc(Br)c(Cl)cc2c1=O (stereo not shown) [Halofuginone]
- osteolysis in mice with established bone metastasis (1205Lu melanoma cells; assessed by radiography, vs placebo): significantly less osteolysis than mice receiving placebo
- bone metastasis, preventive protocol (1205Lu melanoma cells; nude mice inoculated with 1205Lu melanoma cells): inhibited bone metastasis
- cell proliferation (human melanoma cells): inhibited cell proliferation
- expression of TGFbeta target genes (PTHrP, CTGF, CXCR4, IL11) (human melanoma cells): reducing expression of TGFbeta target genes

Molecule: COc1ccc2c(c1)CN(C)CCS2 [S107]
- crossing of the blood brain barrier (RyR [1]): crosses the blood brain barrier
- binding of calstabin to RyR in the brain (RyR [1]; mid-section and cerebellum): enhances binding of calstabin to a RyR in the brain
- specificity (RyR [2]): RyR specific
- HF progression (RyR2): inhibits HF progression
- grip strength (RyR1 [3]): improves grip strength
- muscle damage (RyR1 [3]): reduced muscle damage
- SR Ca2+ leak (Ca2+ sparks, channel open probability) (RyR1 [4]): reduced SR Ca^2+ leak
- exercise capacity (RyR1 [4]): improved
- muscle force production (RyR1 [4]): improved muscle force production
- oxidation induced depletion of calstabin1 from RyR1 (RyR1 [4]): prevented oxidation induced depletion of calstabin1 from RyR1
- tetanic [Ca2+] (RyR1 [4]): increased tetanic [Ca^2+]

Molecule: Fc1ccc(Cl)cc1-c1nc(Nc2ccncc2)c2nccnc2n1 [SD-208]
- skeletal muscle RyR1 oxidation, nitrosylation and depletion of calstabin 1 (RyR1 [5]): prevented oxidation/nitrosylation/calstabin1 depletion from RyR1; also recorded: prevented oxidation of RyR1
- prevention of PC-3 bone metastases (PC-3 bone metastases): highly effective to prevent bone metastases due to PC-3; also recorded: prevents PC-3 bone metastases
- effect of oral SD208 about 30 mg/kg/day co-administered with S107 [6]: same effects as administering SD208 at a dosage of about 60 mg/kg/day
- muscle (EDL) specific force production [7]: improved muscle specific force production
- bone formation and tumor growth in LuCaP 23.1 ([8]; 50 or 150 mg/kg/day po, from 12 weeks post inoculation): does not increase bone formation or tumor growth
- efficacy against LuCAP23.1 bone metastases ([8]; osteoblastic model): not effective against LuCAP23.1 bone metastases

Molecule: denosumab: inhibitor of bone resorption
- skeletal morbidity [9]: reduce skeletal morbidity
